Test [1] has as its system LAMP1 in DU145 cells. The experiment in a line: LAMP1 immunofluorescence. In kind it is cell-based, human. The following applies: 300 nM, 24 hours. On the procedure:
For LAMP1 immunofluorescence, cells were seeded on coverslips overnight and treated with ESK981 at 300 nM for 24 hours. Coverslips were fixed with 10% paraformaldehyde and permeabilized with 10% saponin. Coverslips were then blocked with 10% goat serum and stained with LAMP1 antibody (Cat No. 9091, Cell Signaling Technology) and fluorescently-labelled secondary antibody. Confocal images were taken using a Nikon A1 confocal microscope.

In test [2] the target is T1, PIK3CA (Homo sapiens, UniProt P42336).
T1 construct: purchased DiscoveRX (KdELECT)
T1 sequence (P42336 whole entry): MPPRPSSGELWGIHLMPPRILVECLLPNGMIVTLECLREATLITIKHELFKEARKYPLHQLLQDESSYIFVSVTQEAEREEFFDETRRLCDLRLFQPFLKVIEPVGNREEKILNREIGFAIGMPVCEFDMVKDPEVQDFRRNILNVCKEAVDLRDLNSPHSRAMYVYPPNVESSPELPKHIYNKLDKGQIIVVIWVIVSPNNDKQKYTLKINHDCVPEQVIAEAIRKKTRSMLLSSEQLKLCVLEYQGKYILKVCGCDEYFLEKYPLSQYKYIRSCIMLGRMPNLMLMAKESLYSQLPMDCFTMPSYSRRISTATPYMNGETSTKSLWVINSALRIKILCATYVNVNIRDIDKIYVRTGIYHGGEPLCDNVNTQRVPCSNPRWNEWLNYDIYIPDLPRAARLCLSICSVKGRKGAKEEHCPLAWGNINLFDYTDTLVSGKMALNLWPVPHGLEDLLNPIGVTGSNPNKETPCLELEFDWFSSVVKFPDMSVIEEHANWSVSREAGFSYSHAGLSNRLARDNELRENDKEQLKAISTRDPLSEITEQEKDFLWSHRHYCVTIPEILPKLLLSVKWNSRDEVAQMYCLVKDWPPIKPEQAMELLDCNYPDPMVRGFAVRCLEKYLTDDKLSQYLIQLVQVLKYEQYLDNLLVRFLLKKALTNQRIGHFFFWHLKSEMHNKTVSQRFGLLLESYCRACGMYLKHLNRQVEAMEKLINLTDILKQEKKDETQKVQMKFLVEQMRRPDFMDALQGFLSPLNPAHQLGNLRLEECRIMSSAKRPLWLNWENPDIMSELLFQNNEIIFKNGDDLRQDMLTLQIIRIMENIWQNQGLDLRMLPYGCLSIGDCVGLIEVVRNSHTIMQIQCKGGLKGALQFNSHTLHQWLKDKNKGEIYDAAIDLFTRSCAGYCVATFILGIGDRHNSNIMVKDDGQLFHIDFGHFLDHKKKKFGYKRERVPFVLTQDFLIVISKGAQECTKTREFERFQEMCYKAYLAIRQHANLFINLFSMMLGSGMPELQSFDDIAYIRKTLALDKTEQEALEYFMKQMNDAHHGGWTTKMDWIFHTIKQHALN
The test is described as follows: kinase dissociation constant analysis (KdELECT). It counts as binding. The following applies: 11-point dose-response, duplicate. The protocol: (§1) Quantitative binding constants (Kd) of ESK981 to PIKfyve, PIP5K1A, PIP5K1C, and PIK3CA were generated using KdELECT® platform (DiscoveRX). An 11-point dose-response of ESK981 (0.05-3000 nM) was used, and the experiment was performed in duplicate. Detailed information is described on the DiscoveRX website (www.discoverx.com).

Test [3] addresses T2, PIP5K1A (Homo sapiens, UniProt Q99755).
T2 construct: purchased DiscoveRX (KdELECT)
The experiment in a line: kinase dissociation constant analysis (KdELECT). The following applies: 11-point dose-response, duplicate. It counts as binding. The protocol: as §1

Test [4] has as its target T3, PIP5K1C (Homo sapiens, UniProt O60331).
T3 construct: purchased DiscoveRX (KdELECT)
The test is described as follows: kinase dissociation constant analysis (KdELECT). It counts as binding. The conditions noted are these: 11-point dose-response, duplicate. The protocol:
as §1

The subject of test [5] is DU145 prostate cancer cells. The experiment in a line: cell viability screen with a 167-compound tyrosine kinase inhibitor library. In kind it is cell-based, human. The protocol: FIG. 1: ESK981 inhibits the growth of diverse preclinical models of prostate cancer and is associated with a unique vacuolization morphology. • (a) The percentage viabilities of DU145 cells treated with 300 nM ESK981 or 167 other tyrosine kinase inhibitors when compared to a vehicle control. The top five most inhibitory compounds, as well as cabozantinib and crizotinib (highlighted in orange), and their respective targets are listed in the table. ESK981 is highlighted in red. • (b) Morphological differences of nuclear-restricted RFP-expressing DU145 cells treated with 300 nM ESK981, crizotinib, or cabozantinib. • (c) A long-term survival assay was used to calculate the half-maximum inhibitory concentration (IC50) after two weeks of incubation with the serial dilutions of indicated drugs. (Top) Long-term survival assays of VCaP prostate cancer cells exposed to MTKIs. (Bottom) IC50 of ESK981, crizotinib, and cabozantinib in a panel of prostate cancer cell lines. • (d) ESK981 was effective against enzalutamide (Enza)-resistant cell lines. […] Long-term survival (two weeks) was assayed by absorbance of crystal violet at OD590. • (e) VCaP-RFP cells were cultured for three days in ultralow attachment plates to form 3D tumor spheroids prior to the indicated drug treatments. […] Fluorescence intensity of 3D spheroids was measured by IncuCyte ZOOM. • (f) Castration-resistant VCaP tumors were established subcutaneously in castrated SCID mice, and mice were randomized into three groups, which received vehicle, 30 mg/kg, or 60 mg/kg ESK981 by oral gavage once per day for the indicated dosing schedule. Tumor volumes were monitored by a digital caliper twice per week. Data were analyzed by unpaired t test and presented as mean±SEM. *p<0.05; **p<0.01. • (g) AR^+ prostate patient-derived xenograft (PDX) MDA-PCa-146-12 were implanted subcutaneously in non-castrated SCID mice, and mice were randomized into two groups receiving either once daily vehicle or 30 mg/kg ESK981 for five days each week. […] Tumor volumes were monitored twice per week. […]

Test [6] concerns enzalutamide-resistant LNCaP-AR and CWR-R1 cells. The test is described as follows: long-term survival assay in enzalutamide-resistant cell lines. In kind it is cell-based, human. The following applies: LNCaP-AR and CWR-R1, long-term survival two weeks. The protocol:
FIG. 1: ESK981 inhibits the growth of diverse preclinical models of prostate cancer and is associated with a unique vacuolization morphology. • (a) The percentage viabilities of DU145 cells treated with 300 nM ESK981 or 167 other tyrosine kinase inhibitors when compared to a vehicle control. The top five most inhibitory compounds, as well as cabozantinib and crizotinib (highlighted in orange), and their respective targets are listed in the table. […] Long-term survival (two weeks) was assayed by absorbance of crystal violet at OD590. • (e) VCaP-RFP cells were cultured for three days in ultralow attachment plates to form 3D tumor spheroids prior to the indicated drug treatments. […] Fluorescence intensity of 3D spheroids was measured by IncuCyte ZOOM. • (f) Castration-resistant VCaP tumors were established subcutaneously in castrated SCID mice, and mice were randomized into three groups, which received vehicle, 30 mg/kg, or 60 mg/kg ESK981 by oral gavage once per day for the indicated dosing schedule. Tumor volumes were monitored by a digital caliper twice per week. Data were analyzed by unpaired t test and presented as mean±SEM. *p<0.05; **p<0.01. • (g) AR^+ prostate patient-derived xenograft (PDX) MDA-PCa-146-12 were implanted subcutaneously in non-castrated SCID mice, and mice were randomized into two groups receiving either once daily vehicle or 30 mg/kg ESK981 for five days each week. […]

Some results are limits rather than exact numbers.

T2 sequence (Q99755 whole entry): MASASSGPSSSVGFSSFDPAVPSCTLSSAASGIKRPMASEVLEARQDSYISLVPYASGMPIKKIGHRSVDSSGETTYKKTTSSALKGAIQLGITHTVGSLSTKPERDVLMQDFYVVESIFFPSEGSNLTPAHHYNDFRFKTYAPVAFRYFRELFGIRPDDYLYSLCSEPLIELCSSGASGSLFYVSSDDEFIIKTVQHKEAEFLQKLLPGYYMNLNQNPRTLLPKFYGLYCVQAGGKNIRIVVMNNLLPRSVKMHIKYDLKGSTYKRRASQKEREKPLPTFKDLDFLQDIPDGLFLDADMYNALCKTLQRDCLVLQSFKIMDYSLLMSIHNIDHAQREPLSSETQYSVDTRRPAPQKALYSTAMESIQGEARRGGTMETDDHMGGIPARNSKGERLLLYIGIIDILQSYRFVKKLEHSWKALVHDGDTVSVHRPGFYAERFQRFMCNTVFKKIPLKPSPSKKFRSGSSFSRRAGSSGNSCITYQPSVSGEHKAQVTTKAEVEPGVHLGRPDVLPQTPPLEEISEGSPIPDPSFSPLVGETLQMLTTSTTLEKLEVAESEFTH
T3 sequence (O60331 whole entry): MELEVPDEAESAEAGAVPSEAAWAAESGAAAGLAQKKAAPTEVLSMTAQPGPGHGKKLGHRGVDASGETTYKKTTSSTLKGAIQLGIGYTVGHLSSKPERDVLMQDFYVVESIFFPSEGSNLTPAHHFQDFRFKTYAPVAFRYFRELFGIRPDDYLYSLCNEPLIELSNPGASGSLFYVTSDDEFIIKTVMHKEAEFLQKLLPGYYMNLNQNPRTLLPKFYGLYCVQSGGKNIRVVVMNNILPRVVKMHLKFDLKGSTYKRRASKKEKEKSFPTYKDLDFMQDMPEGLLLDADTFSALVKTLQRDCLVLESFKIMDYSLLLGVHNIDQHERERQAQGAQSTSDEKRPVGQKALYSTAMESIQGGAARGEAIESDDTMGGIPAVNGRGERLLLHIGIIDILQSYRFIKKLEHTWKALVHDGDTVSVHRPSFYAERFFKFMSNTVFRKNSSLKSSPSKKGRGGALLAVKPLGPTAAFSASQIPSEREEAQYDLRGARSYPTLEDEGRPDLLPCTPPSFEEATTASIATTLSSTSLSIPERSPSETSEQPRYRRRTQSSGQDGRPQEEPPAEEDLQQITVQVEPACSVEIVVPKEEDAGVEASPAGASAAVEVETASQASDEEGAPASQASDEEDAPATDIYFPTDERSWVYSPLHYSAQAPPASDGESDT

Take `CC(C)Cn1c2ccc(Nc3ncccn3)cc2c2c3c(c4c(c21)CCc1nn(C)cc1-4)C(=O)NC3` [ESK981, 13-isobutyl-4-methyl-10-(pyrimidin-2-ylamino)-1,2,4,7,8,13-hexahydro-6H-indazolo[5,4-a]pyrrolo[3,4-c]carbazol-6-one]: the “LAMP1 staining of ESK981-induced vacuoles” value in test [1] is given as “positive for the lysosomal marker LAMP1”. For the same compound, the Kd (usually the free concentration of one partner at which half of the binding sites on the other are occupied at equilibrium, for simple one-to-one binding) is above 10000 nM in test [2], 230 nM in test [3] and 210 nM in test [4]. Besides, the “growth inhibition (cell viability)” value in test [5] (300 nM) is “potent growth inhibition”. The cytoplasmic vacuolization morphology entry in test [5] (among the 167 compounds tested) is recorded as “uniquely triggered a cytoplasmic vacuolization morphology”. In addition, the “efficacy in enzalutamide-resistant cell lines” value in test [6] is “remained efficacious”.

For the origin of these results see US20230364084A1, “METHODS FOR PREVENTING OR TREATING CONDITIONS RELATED TO PIKFYVE ACTIVITY” (The Regents of the University of Michigan, priority 2020, published 2023).
